# Measurements taken from ChEMBL document CHEMBL1201862, “PubChem BioAssay data set” (2004).
# Activity calls are given as the source filed them.
# Legend:
# [1] = target: Glutathione-S-transferase (Schistosoma japonicum, UniProt Q26513); experiment: biotin-GST/anti-GST TR-FRET signal inhibitors, dose response, artefact control for Vif-APOBEC3G degradation inhibitor project, biochemical (AID 1117362); type: functional
# [2] = target: Estrogen receptor beta (Homo sapiens, UniProt Q92731); experiment: ERβ–SRC-3 coactivator interaction inhibitors, confirmation, orthogonal assay, biochemical, ELISA, streptavidin-HRP readout (AID 1060)
# [3] = target: T1, Zinc finger protein mex-5 (Caenorhabditis elegans, UniProt Q9XUB2); experiment: MEX-5/TCR-2 RNA interaction inhibitors, dose response, biochemical, C. elegans, fluorescence polarization (AID 1960)
# T1 sequence (Q9XUB2 whole entry): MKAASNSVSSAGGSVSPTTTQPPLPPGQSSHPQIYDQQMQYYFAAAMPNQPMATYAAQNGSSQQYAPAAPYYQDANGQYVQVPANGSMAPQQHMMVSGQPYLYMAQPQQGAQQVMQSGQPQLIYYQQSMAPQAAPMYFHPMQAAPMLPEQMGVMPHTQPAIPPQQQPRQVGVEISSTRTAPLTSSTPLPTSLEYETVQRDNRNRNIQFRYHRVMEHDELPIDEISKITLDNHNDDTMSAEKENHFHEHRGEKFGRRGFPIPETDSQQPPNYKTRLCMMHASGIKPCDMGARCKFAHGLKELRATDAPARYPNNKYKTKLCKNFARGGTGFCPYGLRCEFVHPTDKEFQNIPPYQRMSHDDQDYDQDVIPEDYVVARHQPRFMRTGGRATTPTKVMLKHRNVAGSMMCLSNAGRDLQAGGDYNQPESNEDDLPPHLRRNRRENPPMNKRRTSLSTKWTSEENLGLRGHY
# [4] = target: T2, Bcl-2-like protein 10 (Homo sapiens, UniProt Q9HD36); experiment: displacers of TR3 peptide from Bcl-B, primary screen, selectivity assay for Bfl-1 inhibitor project, biochemical, fluorescence polarization, FITC-TR3 peptide (AID 748);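 further: fluorescence polarization from a fluorescein-labelled TR3 peptide binding purified Bcl-B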
# T2 sequence (Q9HD36 whole entry): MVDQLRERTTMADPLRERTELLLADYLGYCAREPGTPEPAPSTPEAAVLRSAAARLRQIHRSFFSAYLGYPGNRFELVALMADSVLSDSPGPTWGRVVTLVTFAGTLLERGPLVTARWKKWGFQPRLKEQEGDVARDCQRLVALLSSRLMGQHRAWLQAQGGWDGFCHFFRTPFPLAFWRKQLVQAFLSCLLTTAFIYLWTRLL
# [5] = target: T3, RNA-binding protein pos-1 (Caenorhabditis elegans, UniProt G5EF15); experiment: inhibitors of POS-1/mex-3 RNA binding, dose response, biochemical, fluorescence polarization (AID 1964);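 further: purified POS-1 fused to maltose binding protein made in E. coli; potency of compounds blocking POS-1 binding to fluorescent RNA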
# T3 sequence (G5EF15 whole entry): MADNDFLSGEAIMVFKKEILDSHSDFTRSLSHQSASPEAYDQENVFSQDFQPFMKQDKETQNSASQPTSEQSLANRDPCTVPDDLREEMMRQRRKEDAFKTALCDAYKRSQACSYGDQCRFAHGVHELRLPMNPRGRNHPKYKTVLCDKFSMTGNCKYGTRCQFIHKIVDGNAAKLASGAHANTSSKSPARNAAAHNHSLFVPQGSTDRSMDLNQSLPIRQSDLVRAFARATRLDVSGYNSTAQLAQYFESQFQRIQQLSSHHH
# [6] = target: T4, Polyadenylate-binding protein 1 (Homo sapiens, UniProt P11940); experiment: PABP1 MLLE–PAM2 interaction inhibitors, dose response, miRNA deadenylation inhibitor project, biochemical, fluorescence polarization, Cy5-PAM2 peptide, secondary (AID 602260); type: functional; conditions: read-out: IC50_Mean
# [7] = target: Large T antigen (Simian virus 40, UniProt P03070); type: functional, Betapolyomavirus macacae;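 further: Confirmatory-stage PubChem screen for compounds that inhibit SV40 T antigen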
# [8] = target: Genome polyprotein (dengue virus type 2, UniProt P29990); experiment: Dengue-2 NS5 methyltransferase inhibitors, primary screen, biochemical, confirmation dose response (AID 588689); type: functional
# [9] = target: T4, Polyadenylate-binding protein 1; experiment: PABP1 MLLE–PAM2 binding inhibitor potency, dose response, biochemical, fluorescence polarization, FITC-PAM2 peptide (AID 602259); type: functional; conditions: read-out: IC50_Mean
# [10] = target: Cytochrome P450 2C9 (Homo sapiens, UniProt P11712); conditions: Potency
# [11] = target: Cytochrome P450 2C19 (Homo sapiens, UniProt P33261); experiment: qHTS Assay for Inhibitors and Substrates of Cytochrome P450 2C19. [Related pubchem assays: 410 ]; type: ADME; conditions: read-out: Potency
# [12] = target: Ubiquitin carboxyl-terminal hydrolase BAP1 (Homo sapiens, UniProt Q92560); experiment: BAP1 deubiquitinase inhibitors, dose response, biochemical (AID 714); type: functional
# [13] = HepG2 cell cytotoxicity, dose response, cytotoxicity control, cherry-picks, set 5 (AID 1053118); type: functional, cell-based
# [14] = fibronectin fibrillogenesis inhibitors in fibroblasts, dose response, AH1F cells, Alexa488-fibronectin fluorescence, cherry-pick, set 2 (AID 1117283); type: functional, cell-based
# [15] = inhibitors of intracellular T. cruzi replication, confirmation, NIH3T3 host cells, beta-gal luminescence (AID 2044); type: functional, cell-based;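 further: intracellular parasites grown in NIH/3T3 mouse fibroblasts as host cells; luminescent beta-galactosidase reporter signal from transgenic T. cruzi replicating inside host cells; inhibitors lower the luminescence signal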
# [16] = Vero cell cytotoxicity, dose response, cytotoxicity control for Vif-APOBEC3G degradation inhibitor project, Vero cells (AID 1117358); type: functional; conditions: Human immunodeficiency virus 1, Vero
# [17] = cytotoxicity toward NIH3T3 fibroblasts, dose response, counter-screen, cell-based, ATP luminescence, mouse fibroblasts (AID 2010); type: functional;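 further: cells exposed to compound for about 90 hours before reading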
# [18] = test system: Streptococcus sp. 'group A'; experiment: growth inhibition of control SK(-) GAS strain, dose response, counter-screen for streptokinase expression inhibitor project, luminescence, kanamycin, BacTiterGlo, confirmation (AID 1900); type: functional, organism-based
# [19] = test system: Streptococcus; experiment: Group A Streptococcus viability loss, dose response, counter-screen for streptokinase expression inhibitor project, luminescence, BacTiterGlo (AID 1915); type: functional, organism-based;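 further: potency for reduction of bacterial viability or growth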
# [20] = target: G-protein coupled receptor 183 (Homo sapiens, UniProt P32249); experiment: SAR confirmation of small molecule antagonists of the EBI2 receptor via a luminescent beta-arrestin assa.; type: functional
# [21] = test system: Vero; experiment: host cell cytotoxicity of antiviral hits, dose response, cytotoxicity control for West Nile virus antiviral project, secondary assay (AID 1650); type: functional; conditions: Chlorocebus sabaeus
# [22] = target: T5, Streptokinase A (Streptococcus pyogenes serotype M1, UniProt P10520); experiment: S. pyogenes streptokinase expression inhibitors, potency, dose response, plasminogen activation absorbance, OD405 (AID 1914); type: functional, Streptococcus pyogenes M1 GAS;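 further: secreted streptokinase activity via plasminogen activation per viability signal from cell pellet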
# T5 sequence (P10520 whole entry): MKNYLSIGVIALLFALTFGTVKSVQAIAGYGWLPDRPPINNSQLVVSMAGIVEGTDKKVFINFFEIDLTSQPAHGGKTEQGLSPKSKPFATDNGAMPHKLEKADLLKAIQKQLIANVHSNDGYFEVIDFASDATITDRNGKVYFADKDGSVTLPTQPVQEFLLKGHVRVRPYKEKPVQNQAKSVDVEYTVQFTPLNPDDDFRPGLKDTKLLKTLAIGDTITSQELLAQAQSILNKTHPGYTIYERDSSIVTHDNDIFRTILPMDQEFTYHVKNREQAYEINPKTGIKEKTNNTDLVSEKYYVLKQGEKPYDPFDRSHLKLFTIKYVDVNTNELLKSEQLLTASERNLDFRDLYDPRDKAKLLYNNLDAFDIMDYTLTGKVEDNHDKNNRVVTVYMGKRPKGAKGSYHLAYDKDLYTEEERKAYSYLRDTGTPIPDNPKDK
# T4 sequence (P11940 whole entry): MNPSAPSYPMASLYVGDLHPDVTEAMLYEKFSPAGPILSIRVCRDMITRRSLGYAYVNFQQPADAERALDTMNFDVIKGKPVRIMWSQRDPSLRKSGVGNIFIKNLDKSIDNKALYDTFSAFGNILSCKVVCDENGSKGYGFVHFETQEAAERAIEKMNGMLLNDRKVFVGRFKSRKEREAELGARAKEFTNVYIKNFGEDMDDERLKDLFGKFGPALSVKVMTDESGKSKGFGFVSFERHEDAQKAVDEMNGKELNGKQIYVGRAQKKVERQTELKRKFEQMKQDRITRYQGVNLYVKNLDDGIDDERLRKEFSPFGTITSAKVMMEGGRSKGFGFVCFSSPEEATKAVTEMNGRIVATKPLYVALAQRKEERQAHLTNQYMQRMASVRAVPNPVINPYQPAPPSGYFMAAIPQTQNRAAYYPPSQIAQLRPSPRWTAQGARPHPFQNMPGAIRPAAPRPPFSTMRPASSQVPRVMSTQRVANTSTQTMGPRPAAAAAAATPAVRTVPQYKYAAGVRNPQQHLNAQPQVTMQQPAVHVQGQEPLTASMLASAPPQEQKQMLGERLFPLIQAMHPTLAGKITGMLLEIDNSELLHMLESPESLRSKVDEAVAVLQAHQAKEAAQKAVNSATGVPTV
# Chain of G-protein coupled receptor 183 (P32249 whole entry): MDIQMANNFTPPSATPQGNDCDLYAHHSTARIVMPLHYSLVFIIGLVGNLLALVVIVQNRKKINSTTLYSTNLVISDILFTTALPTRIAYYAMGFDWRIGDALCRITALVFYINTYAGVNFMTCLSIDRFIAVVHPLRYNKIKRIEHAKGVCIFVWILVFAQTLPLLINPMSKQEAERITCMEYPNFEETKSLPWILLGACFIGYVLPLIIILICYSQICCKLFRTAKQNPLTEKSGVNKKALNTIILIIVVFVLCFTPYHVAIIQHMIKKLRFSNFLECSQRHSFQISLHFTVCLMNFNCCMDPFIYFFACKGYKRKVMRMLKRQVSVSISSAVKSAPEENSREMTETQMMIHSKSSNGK
# Chain of Large T antigen (P03070 whole entry): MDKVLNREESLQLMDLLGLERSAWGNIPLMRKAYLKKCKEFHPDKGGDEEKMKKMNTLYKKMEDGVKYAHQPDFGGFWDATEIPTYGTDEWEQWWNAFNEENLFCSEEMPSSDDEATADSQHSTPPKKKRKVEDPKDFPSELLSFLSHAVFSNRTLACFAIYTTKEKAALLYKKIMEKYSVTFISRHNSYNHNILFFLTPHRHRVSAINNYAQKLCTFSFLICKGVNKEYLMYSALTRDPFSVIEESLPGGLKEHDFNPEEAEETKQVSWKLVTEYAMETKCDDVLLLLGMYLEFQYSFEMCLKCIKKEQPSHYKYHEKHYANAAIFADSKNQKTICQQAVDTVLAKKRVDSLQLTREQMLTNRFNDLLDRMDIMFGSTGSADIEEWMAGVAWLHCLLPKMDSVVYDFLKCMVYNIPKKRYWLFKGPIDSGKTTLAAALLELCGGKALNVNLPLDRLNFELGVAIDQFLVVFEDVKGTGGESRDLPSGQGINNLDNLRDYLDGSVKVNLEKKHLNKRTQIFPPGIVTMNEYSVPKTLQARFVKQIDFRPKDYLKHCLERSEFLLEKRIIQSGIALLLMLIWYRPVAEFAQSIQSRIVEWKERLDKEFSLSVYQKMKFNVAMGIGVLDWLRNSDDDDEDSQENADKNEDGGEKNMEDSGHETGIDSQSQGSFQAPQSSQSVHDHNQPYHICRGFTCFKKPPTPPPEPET
# Chain of Cytochrome P450 2C19 (P33261 whole entry): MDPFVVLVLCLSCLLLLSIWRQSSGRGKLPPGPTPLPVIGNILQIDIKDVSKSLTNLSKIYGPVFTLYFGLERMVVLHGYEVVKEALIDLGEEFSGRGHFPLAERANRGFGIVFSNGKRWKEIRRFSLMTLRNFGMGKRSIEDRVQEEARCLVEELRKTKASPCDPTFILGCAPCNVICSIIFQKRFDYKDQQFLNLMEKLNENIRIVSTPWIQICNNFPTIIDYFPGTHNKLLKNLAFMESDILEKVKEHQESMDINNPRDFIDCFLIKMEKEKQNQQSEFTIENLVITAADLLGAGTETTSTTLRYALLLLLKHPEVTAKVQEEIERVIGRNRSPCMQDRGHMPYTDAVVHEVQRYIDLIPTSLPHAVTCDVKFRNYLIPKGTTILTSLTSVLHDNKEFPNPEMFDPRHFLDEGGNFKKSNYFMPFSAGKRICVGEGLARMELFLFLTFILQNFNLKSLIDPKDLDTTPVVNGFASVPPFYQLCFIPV
# Chain of Ubiquitin carboxyl-terminal hydrolase BAP1 (Q92560 whole entry): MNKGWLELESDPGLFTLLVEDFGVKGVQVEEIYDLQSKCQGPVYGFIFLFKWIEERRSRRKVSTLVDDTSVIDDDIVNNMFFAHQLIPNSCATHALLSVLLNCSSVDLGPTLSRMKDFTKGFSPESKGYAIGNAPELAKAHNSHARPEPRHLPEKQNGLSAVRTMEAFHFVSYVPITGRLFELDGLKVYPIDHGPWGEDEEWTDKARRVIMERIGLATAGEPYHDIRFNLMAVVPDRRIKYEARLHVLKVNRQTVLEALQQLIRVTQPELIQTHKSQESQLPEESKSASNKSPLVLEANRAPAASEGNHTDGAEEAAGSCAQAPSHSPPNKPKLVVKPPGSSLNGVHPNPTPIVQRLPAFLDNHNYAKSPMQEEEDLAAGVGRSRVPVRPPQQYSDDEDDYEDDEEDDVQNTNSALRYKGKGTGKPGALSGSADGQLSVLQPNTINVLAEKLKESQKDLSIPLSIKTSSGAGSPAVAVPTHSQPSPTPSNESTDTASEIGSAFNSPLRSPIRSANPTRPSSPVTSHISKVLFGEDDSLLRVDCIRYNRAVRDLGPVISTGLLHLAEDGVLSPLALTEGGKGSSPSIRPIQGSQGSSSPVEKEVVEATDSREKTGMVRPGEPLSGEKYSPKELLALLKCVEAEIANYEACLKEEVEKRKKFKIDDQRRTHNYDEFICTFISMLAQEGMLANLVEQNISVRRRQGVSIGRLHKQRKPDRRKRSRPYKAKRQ
# Chain of Estrogen receptor beta (Q92731 whole entry): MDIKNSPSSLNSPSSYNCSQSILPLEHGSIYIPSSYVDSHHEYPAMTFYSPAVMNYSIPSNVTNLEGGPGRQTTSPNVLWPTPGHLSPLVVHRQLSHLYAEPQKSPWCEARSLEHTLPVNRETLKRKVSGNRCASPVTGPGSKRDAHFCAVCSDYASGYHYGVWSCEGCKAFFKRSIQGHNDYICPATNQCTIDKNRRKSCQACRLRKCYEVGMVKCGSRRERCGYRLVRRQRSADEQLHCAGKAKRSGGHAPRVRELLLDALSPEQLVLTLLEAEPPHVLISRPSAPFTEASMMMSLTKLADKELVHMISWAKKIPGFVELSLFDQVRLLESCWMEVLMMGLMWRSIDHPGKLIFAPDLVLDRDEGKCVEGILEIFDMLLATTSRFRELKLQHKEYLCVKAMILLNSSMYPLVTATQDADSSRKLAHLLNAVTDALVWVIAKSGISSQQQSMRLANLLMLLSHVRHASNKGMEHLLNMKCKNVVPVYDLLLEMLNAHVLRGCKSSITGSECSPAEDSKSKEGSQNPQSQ
# Chain of Cytochrome P450 2C9 (P11712 whole entry): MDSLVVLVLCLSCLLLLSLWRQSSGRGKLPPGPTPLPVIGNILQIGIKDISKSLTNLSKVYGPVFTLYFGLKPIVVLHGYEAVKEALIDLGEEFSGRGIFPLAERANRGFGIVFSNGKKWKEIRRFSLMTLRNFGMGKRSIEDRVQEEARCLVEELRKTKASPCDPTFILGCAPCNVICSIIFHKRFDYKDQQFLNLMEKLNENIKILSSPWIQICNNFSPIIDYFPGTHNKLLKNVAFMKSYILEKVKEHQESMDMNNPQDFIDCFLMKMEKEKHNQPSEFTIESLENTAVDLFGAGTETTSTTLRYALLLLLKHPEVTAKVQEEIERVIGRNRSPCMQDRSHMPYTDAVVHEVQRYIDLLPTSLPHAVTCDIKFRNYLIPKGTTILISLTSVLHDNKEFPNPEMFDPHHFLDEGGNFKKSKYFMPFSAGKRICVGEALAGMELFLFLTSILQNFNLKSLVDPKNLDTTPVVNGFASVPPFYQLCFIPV
# Chain of Glutathione-S-transferase (Q26513 whole entry): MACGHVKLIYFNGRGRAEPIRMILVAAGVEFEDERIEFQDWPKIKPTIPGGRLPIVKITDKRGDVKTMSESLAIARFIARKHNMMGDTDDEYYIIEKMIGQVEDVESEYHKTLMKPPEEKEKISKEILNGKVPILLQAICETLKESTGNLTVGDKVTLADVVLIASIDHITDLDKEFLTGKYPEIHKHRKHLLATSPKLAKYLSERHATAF
smiles,measurement,setting,value
O=c1oc2c3c4c(cc2s1)CCCN4CCC3,IC50,[1],66.2 µM (active)
same,IC50,[2],> 50 µM (not active)
same,EC50,[3],24.1 µM (inconclusive)
same,IC50,[4],10.4 µM (active)
same,EC50,[5],28.1 µM (active)
same,IC50,[6],> 66 µM (inactive)
same,IC50,[7],17.9 µM (active)
same,IC50,[8],86.7 µM (active)
same,IC50,[9],48 µM (inactive)
COc1ccc(C(=O)[C@H]2[C@H]3[C@@H](C(=O)[C@@H]4OC[C@H]3O4)[C@H]3C=Cc4ccccc4N32)c(OC)c1,AC50,[10],31.6 µM (inconclusive)
same,AC50,[11],31.6 µM (inconclusive)
Nc1nn(S(=O)(=O)c2cccc3nsnc23)cc1-c1ccc(Br)cc1,IC50,[12],> 50 µM (not active)
COc1ccc([N+](=O)[O-])cc1NS(=O)(=O)c1ccc(C(=O)N2CCCC2)cc1,AC50,[13],> 52 µM (inactive)
same,AC50,[14],51 µM (active)
O=C(Nc1nnc(C2CC2)o1)c1ccc(S(=O)(=O)N2CCCc3ccccc32)cc1,EC50,[15],1.4 µM (active)
same,CC50,[16],15.1 µM (active)
same,EC50,[17],5.11 µM (active)
same,EC50,[18],2.46 µM (active)
same,EC50,[19],4 µM (active)
COc1ccc(/C=C/C(=O)N2CCN(S(=O)(=O)c3ccc(Br)cc3)CC2)cc1,IC50,[20],0.00958 µM (active)
O=C(Nc1ccc(OC(F)(F)F)cc1)N1CCN(c2ccnc3cc(Cl)ccc23)CC1,CC50,[21],2.95 µM (active)
same,EC50,[15],2.06 µM (active)
same,EC50,[17],14.4 µM (active)
same,EC50,[18],9.61 µM (active)
same,EC50,[19],> 150 µM (not active)
same,EC50,[22],12.7 µM (active)
